Assays:
Details in all cases: treatment: drug + dasatinib (fixed dose, not stated); 5 days
769-P [1] = assay: GI50 of drug in presence of dasatinib; higher = less potent
Procedure: (§1)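 Primary HTS combination arm: 8 RCC cell lines treated with 8 doses (up to 10 uM) of each library drug plus a fixed dose of dasatinib (dose not stated) for 5 days; viability read by CellTiter-Glo and normalised to DMSO. GI50 was fitted with XLfit, AUC is the area under the dose-response curve, and minimum viability is the lowest fraction of DMSO viability across doses.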

786-O [2] = assay: as above
Procedure: as §1

A498 [3] = assay: as above
Procedure: as §1

ACHN [4] = assay: as above
Procedure: as §1

CAKI-1 [5] = assay: as above
Procedure: as §1

SN12C [6] = assay: as above
Procedure: as §1

TK-10 [7] = assay: as above
Procedure: as §1

UO-31 [8] = assay: as above
Procedure: as §1

769-P [9] = assay: minimum viability across doses, drug + dasatinib, relative to DMSO (fraction); higher = less growth inhibition
Procedure: as §1

786-O [10] = assay: as above
Procedure: as §1

A498 [11] = assay: as above
Procedure: as §1

ACHN [12] = assay: as above
Procedure: as §1

CAKI-1 [13] = assay: as above
Procedure: as §1

SN12C [14] = assay: as above
Procedure: as §1

TK-10 [15] = assay: as above
Procedure: as §1

UO-31 [16] = assay: as above
Procedure: as §1

769-P [17] = assay: AUC of dose-response viability curve, drug + dasatinib, normalised to DMSO (arbitrary (AUC of normalised viability)); higher = less growth inhibition
Procedure: as §1

786-O [18] = assay: as above
Procedure: as §1

A498 [19] = assay: as above
Procedure: as §1

ACHN [20] = assay: as above
Procedure: as §1

CAKI-1 [21] = assay: as above
Procedure: as §1

SN12C [22] = assay: as above
Procedure: as §1

TK-10 [23] = assay: as above
Procedure: as §1

UO-31 [24] = assay: as above
Procedure: as §1

Row | GI50 of drug (786-O [2]) [nM] | GI50 of drug (ACHN [4]) [nM] | SMILES | GI50 of drug (769-P [1]) [nM] | GI50 of drug (A498 [3]) [nM] | GI50 of drug (CAKI-1 [5]) [nM] | GI50 of drug (SN12C [6]) [nM] | GI50 of drug (TK-10 [7]) [nM] | GI50 of drug (UO-31 [8]) [nM] | minimum viability across doses (769-P [9]) | minimum viability across doses (786-O [10]) | minimum viability across doses (A498 [11]) | minimum viability across doses (ACHN [12]) | minimum viability across doses (CAKI-1 [13]) | minimum viability across doses (SN12C [14]) | minimum viability across doses (TK-10 [15]) | minimum viability across doses (UO-31 [16]) | AUC of dose-response viability curve (769-P [17]) | AUC of dose-response viability curve (786-O [18]) | AUC of dose-response viability curve (A498 [19]) | AUC of dose-response viability curve (ACHN [20]) | AUC of dose-response viability curve (CAKI-1 [21]) | AUC of dose-response viability curve (SN12C [22]) | AUC of dose-response viability curve (TK-10 [23]) | AUC of dose-response viability curve (UO-31 [24])
1 | 81.7 | 205 | Nc1cc(C(F)(F)F)c(-c2cc(N3CCOCC3)nc(N3CCOCC3)n2)cn1 [BKM120 (NVP-BKM120)] + Cc1nc(Nc2ncc(C(=O)Nc3c(C)cccc3Cl)s2)cc(N2CCN(CCO)CC2)n1 [dasatinib] | 478 | 1250 | 244 | 914 | 505 | 663 | 0.0577 | 0.00305 | 0.101 | 0.0632 | 0.0204 | 0.0529 | 0.0741 | 0.00967 | 1.83 | 1.29 | 2.49 | 1.48 | 1.51 | 1.84 | 1.84 | 2.27
2 | 7190 | 2870 | CC(C)c1cnn2c(NCc3ccccc3)cc(NCCCCCCN)nc12.Cl [BS-181 HCl] + Cc1nc(Nc2ncc(C(=O)Nc3c(C)cccc3Cl)s2)cc(N2CCN(CCO)CC2)n1 [dasatinib] | > 10000 | > 10000 | > 10000 | > 10000 | > 10000 | > 10000 | 0.672 | 0.438 | 0.942 | 0.344 | 0.6 | 0.67 | 0.657 | 1.11 | 2.55 | 2.72 | 3.45 | 1.94 | 2.34 | 2.46 | 2.63 | 4.39
3 | 695 | 411 | O=C(NCCCNc1nc(Nc2cccc(NC(=O)N3CCCC3)c2)ncc1I)c1cccs1 [BX-795] + Cc1nc(Nc2ncc(C(=O)Nc3c(C)cccc3Cl)s2)cc(N2CCN(CCO)CC2)n1 [dasatinib] | 1590 | > 10000 | 457 | 4410 | 1780 | 3020 | 0.0706 | 0.00318 | 0.74 | 0.155 | 0.0814 | 0.334 | 0.0986 | 0.015 | 2.08 | 1.72 | 3.06 | 1.74 | 1.77 | 2.44 | 2.09 | 3.15
4 | 937 | 1280 | O=C(Nc1cccc(Nc2ncc(Br)c(NCCc3cnc[nH]3)n2)c1)N1CCCC1 [BX-912] + Cc1nc(Nc2ncc(C(=O)Nc3c(C)cccc3Cl)s2)cc(N2CCN(CCO)CC2)n1 [dasatinib] | 4600 | 5820 | 502 | 1180 | 2590 | 9130 | 0.335 | 0.0673 | 0.365 | 0.168 | 0.0425 | 0.0907 | 0.144 | 0.288 | 2.3 | 1.78 | 2.97 | 1.9 | 1.8 | 2.23 | 2.25 | 3.19
5 | 69.8 | 11.6 | Cc1nc(NC(=O)N2CCC[C@H]2C(N)=O)sc1-c1ccnc(C(C)(C)C(F)(F)F)c1 [BYL719] + Cc1nc(Nc2ncc(C(=O)Nc3c(C)cccc3Cl)s2)cc(N2CCN(CCO)CC2)n1 [dasatinib] | 3680 | > 10000 | 1720 | > 10000 | 2790 | 5560 | 0.393 | 0.114 | 0.54 | 0.242 | 0.162 | 0.407 | 0.305 | 0.0931 | 2.29 | 1.56 | 3.24 | 1.45 | 2.14 | 2.23 | 2.15 | 3.72
6 | 1340 | 14.1 | C=CC(=O)Nc1cc2c(Nc3ccc(F)c(Cl)c3)ncnc2cc1OCCCN1CCOCC1 [CI-1033 (Canertinib)] + Cc1nc(Nc2ncc(C(=O)Nc3c(C)cccc3Cl)s2)cc(N2CCN(CCO)CC2)n1 [dasatinib] | 46.4 | 4070 | 739 | 969 | 283 | 1330 | 0.185 | 0.372 | 0.0275 | 0.11 | 0.0894 | 0.295 | 0.133 | 0.00946 | 1.46 | 2.11 | 2.74 | 1.31 | 1.84 | 2.13 | 1.79 | 2.4
7 | 482 | 137 | Cc1nc(N)sc1-c1ccnc(Nc2ccc(N3CCOCC3)cc2)n1 [CYC116] + Cc1nc(Nc2ncc(C(=O)Nc3c(C)cccc3Cl)s2)cc(N2CCN(CCO)CC2)n1 [dasatinib] | 1020 | 6520 | 332 | 831 | 640 | 2020 | 0.074 | 0.0032 | 0.381 | 0.0722 | 0.00751 | 0.0981 | 0.0917 | 0.0118 | 1.92 | 1.74 | 3.01 | 1.35 | 1.45 | 2 | 1.96 | 2.86
8 | 1350 | 210 | COc1cc2c(Oc3ccc4[nH]c(C)cc4c3F)ncnc2cc1OCCCN1CCCC1 [Cediranib (AZD2171)] + Cc1nc(Nc2ncc(C(=O)Nc3c(C)cccc3Cl)s2)cc(N2CCN(CCO)CC2)n1 [dasatinib] | 3970 | 2390 | 287 | 355 | 2240 | 617 | 0.145 | 0.13 | 0.154 | 0.0558 | 0.019 | 0.0758 | 0.0412 | 0.014 | 2.35 | 2.21 | 2.63 | 1.61 | 1.59 | 1.85 | 2.35 | 2.17
9 | 884 | 796 | N#CCNC(=O)c1ccc(-c2ccnc(Nc3ccc(N4CCOCC4)cc3)n2)cc1 [Cyt387] + Cc1nc(Nc2ncc(C(=O)Nc3c(C)cccc3Cl)s2)cc(N2CCN(CCO)CC2)n1 [dasatinib] | 2110 | > 10000 | 325 | 2910 | 1630 | 2550 | 0.125 | 0.0246 | 0.897 | 0.0607 | 0.0305 | 0.271 | 0.0961 | 0.00938 | 2.24 | 1.73 | 3.6 | 1.72 | 1.83 | 2.27 | 2.14 | 2.78
10 | 293 | 499 | CNC(=O)c1cc(Oc2ccc(NC(=O)Nc3cc(C(C)(C)C)nn3-c3ccc4ncccc4c3)c(F)c2)ccn1 [DCC-2036 (Rebastinib)] + Cc1nc(Nc2ncc(C(=O)Nc3c(C)cccc3Cl)s2)cc(N2CCN(CCO)CC2)n1 [dasatinib] | 1540 | 4420 | 125 | 319 | 1330 | 1100 | 0.185 | 0.208 | 0.0121 | 0.0458 | 0.053 | 0.0277 | 0.0566 | 0.00958 | 2.21 | 1.88 | 3.51 | 1.71 | 1.54 | 1.87 | 2.29 | 2.84
11 | 4070 | 44.8 | CN1CCN(c2ccc3nc(-c4c(N)c5c(F)cccc5[nH]c4=O)[nH]c3c2)CC1 [Dovitinib (TKI-258)] + Cc1nc(Nc2ncc(C(=O)Nc3c(C)cccc3Cl)s2)cc(N2CCN(CCO)CC2)n1 [dasatinib] | 1410 | 2330 | 148 | 266 | 1890 | 697 | 0.0592 | 0.263 | 0.239 | 0.14 | 0.0724 | 0.0733 | 0.277 | 0.0928 | 2.06 | 2.58 | 2.49 | 1.38 | 1.5 | 1.6 | 2.33 | 2.36
12 | 3480 | 11.7 | CC(O)C(=O)O.CC(O)C(=O)O.CN1CCN(c2ccc3nc(-c4c(N)c5c(F)cccc5[nH]c4=O)[nH]c3c2)CC1 [Dovitinib Dilactic acid (TKI258 Dilactic acid)] + Cc1nc(Nc2ncc(C(=O)Nc3c(C)cccc3Cl)s2)cc(N2CCN(CCO)CC2)n1 [dasatinib] | 1750 | 4270 | 98.2 | 352 | 1070 | 1320 | 0.0213 | 0.139 | 0.303 | 0.0981 | 0.0435 | 0.0502 | 0.289 | 0.124 | 2.2 | 2.64 | 3.14 | 0.989 | 1.45 | 1.8 | 2.12 | 3.44
13 | > 10000 | 1260 | COc1cc2nccc(Oc3ccc(NC(=O)NC4CC4)c(Cl)c3)c2cc1C(N)=O [E7080 (Lenvatinib)] + Cc1nc(Nc2ncc(C(=O)Nc3c(C)cccc3Cl)s2)cc(N2CCN(CCO)CC2)n1 [dasatinib] | 4520 | > 10000 | 431 | > 10000 | > 10000 | 7260 | 0.321 | 0.674 | 0.795 | 0.247 | 0.0901 | 0.312 | 0.682 | 0.338 | 2.26 | 2.62 | 3.47 | 1.96 | 1.81 | 2.22 | 2.65 | 1.8

Row | SMILES | GI50 of drug (786-O [2]) [nM] | GI50 of drug (ACHN [4]) [nM] | GI50 of drug (769-P [1]) [nM] | GI50 of drug (A498 [3]) [nM] | GI50 of drug (CAKI-1 [5]) [nM] | GI50 of drug (SN12C [6]) [nM] | GI50 of drug (TK-10 [7]) [nM] | GI50 of drug (UO-31 [8]) [nM] | minimum viability across doses (769-P [9]) | minimum viability across doses (786-O [10]) | minimum viability across doses (A498 [11]) | minimum viability across doses (ACHN [12]) | minimum viability across doses (CAKI-1 [13]) | minimum viability across doses (SN12C [14]) | minimum viability across doses (TK-10 [15]) | minimum viability across doses (UO-31 [16]) | AUC of dose-response viability curve (769-P [17]) | AUC of dose-response viability curve (786-O [18]) | AUC of dose-response viability curve (A498 [19]) | AUC of dose-response viability curve (ACHN [20]) | AUC of dose-response viability curve (CAKI-1 [21]) | AUC of dose-response viability curve (SN12C [22]) | AUC of dose-response viability curve (TK-10 [23]) | AUC of dose-response viability curve (UO-31 [24])
14 | O=c1[nH]c2ccc(Cl)cc2c(N[C@@H]2CN3CCC2CC3)c1-c1nc2ccccc2[nH]1 [CHIR-124] + Cc1nc(Nc2ncc(C(=O)Nc3c(C)cccc3Cl)s2)cc(N2CCN(CCO)CC2)n1 [dasatinib] | 37.4 | 11.2 | 101 | 293 | 87.1 | 1000 | 70.6 | 73.9 | 0.0198 | 0.00497 | 0.0177 | 0.018 | 0.0428 | 0.00873 | 0.151 | 0.00945 | 1.31 | 0.817 | 2.13 | 0.737 | 1.3 | 1.76 | 1.37 | 1.52

Reference: the supplement of paper PMC8149375
